Consider six compounds from US20240376138A1, “Crystal Forms, Preparation Method And Application Of Aryl Phosphine Oxide Compound” (Chengdu Di'Ao Jiuhong Pharmaceutical Factory, priority 2021, published 2024).

The structures appear in SMILES notation.

For data set [1], the target named is Ba/F3 cells expressing EGFR-C797S/Del19 (Homo sapiens, UniProt P00533, C797S, cells depend on it, form not given). Briefly: Cell anti-proliferation experiment 1, BaF3 cells expressing EGFR mutation (CellTiter-Glo). Particulars: 3 days, CTG, read-out: EGFR-C797S-Del19 IC50. In kind it is cell-based. (In general: In ATP-based viability assays light output follows the ATP content of the culture.)
Sequence of Ba/F3 cells expressing EGFR-C797S/Del19 (P00533 with tags, fused parts or gaps DEL746-750/C797S, form open): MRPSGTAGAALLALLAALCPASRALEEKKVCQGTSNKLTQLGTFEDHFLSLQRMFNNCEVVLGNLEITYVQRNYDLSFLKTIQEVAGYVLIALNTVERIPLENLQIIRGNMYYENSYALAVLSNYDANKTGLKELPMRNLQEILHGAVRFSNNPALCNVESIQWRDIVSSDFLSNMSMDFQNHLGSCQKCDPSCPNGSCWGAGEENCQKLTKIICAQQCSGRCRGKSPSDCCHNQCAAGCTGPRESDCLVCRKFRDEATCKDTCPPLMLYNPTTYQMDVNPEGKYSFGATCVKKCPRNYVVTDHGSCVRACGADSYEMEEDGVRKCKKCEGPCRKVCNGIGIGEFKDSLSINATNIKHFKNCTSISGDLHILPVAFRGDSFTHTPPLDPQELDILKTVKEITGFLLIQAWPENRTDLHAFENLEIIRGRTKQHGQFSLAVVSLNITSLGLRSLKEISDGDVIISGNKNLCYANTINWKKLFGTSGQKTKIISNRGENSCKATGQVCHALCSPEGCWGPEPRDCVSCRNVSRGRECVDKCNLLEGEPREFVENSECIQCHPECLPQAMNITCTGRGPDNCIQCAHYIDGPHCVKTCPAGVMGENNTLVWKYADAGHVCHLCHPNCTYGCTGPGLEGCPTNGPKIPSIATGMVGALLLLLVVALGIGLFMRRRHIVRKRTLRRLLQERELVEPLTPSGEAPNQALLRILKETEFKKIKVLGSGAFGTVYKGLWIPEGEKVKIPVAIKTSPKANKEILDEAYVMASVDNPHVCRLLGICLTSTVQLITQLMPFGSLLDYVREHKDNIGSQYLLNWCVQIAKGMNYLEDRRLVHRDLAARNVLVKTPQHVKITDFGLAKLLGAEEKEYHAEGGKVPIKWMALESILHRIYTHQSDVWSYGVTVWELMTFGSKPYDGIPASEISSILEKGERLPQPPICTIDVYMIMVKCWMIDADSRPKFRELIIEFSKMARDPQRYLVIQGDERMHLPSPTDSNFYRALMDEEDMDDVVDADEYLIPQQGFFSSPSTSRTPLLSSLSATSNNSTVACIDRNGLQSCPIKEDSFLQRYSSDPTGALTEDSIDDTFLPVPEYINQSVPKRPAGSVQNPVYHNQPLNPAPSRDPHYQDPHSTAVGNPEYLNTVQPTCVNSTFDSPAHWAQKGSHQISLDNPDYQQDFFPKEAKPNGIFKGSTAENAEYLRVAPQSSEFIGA

The target of data set [2] is Ba/F3 cells expressing EGFR-C797S/T790M/Del19 (Homo sapiens, UniProt P00533, T790M/C797S, cells depend on it, form not given). Described as above. In kind it is cell-based. Particulars: read-out: EGFR-C797S/T790M/Del19 IC50.
For data set [3], the target named is T1, BaF3 cells expressing EML-4-ALK-L1196M (Homo sapiens, UniProt Q9UM73, L1196M, cells depend on it).
T1 construct: fused on or other part: Q9HC35 (Echinoderm microtubule-associated protein-like 4)
T1 sequence (Q9UM73 whole entry L1196M, the tested form may be a part): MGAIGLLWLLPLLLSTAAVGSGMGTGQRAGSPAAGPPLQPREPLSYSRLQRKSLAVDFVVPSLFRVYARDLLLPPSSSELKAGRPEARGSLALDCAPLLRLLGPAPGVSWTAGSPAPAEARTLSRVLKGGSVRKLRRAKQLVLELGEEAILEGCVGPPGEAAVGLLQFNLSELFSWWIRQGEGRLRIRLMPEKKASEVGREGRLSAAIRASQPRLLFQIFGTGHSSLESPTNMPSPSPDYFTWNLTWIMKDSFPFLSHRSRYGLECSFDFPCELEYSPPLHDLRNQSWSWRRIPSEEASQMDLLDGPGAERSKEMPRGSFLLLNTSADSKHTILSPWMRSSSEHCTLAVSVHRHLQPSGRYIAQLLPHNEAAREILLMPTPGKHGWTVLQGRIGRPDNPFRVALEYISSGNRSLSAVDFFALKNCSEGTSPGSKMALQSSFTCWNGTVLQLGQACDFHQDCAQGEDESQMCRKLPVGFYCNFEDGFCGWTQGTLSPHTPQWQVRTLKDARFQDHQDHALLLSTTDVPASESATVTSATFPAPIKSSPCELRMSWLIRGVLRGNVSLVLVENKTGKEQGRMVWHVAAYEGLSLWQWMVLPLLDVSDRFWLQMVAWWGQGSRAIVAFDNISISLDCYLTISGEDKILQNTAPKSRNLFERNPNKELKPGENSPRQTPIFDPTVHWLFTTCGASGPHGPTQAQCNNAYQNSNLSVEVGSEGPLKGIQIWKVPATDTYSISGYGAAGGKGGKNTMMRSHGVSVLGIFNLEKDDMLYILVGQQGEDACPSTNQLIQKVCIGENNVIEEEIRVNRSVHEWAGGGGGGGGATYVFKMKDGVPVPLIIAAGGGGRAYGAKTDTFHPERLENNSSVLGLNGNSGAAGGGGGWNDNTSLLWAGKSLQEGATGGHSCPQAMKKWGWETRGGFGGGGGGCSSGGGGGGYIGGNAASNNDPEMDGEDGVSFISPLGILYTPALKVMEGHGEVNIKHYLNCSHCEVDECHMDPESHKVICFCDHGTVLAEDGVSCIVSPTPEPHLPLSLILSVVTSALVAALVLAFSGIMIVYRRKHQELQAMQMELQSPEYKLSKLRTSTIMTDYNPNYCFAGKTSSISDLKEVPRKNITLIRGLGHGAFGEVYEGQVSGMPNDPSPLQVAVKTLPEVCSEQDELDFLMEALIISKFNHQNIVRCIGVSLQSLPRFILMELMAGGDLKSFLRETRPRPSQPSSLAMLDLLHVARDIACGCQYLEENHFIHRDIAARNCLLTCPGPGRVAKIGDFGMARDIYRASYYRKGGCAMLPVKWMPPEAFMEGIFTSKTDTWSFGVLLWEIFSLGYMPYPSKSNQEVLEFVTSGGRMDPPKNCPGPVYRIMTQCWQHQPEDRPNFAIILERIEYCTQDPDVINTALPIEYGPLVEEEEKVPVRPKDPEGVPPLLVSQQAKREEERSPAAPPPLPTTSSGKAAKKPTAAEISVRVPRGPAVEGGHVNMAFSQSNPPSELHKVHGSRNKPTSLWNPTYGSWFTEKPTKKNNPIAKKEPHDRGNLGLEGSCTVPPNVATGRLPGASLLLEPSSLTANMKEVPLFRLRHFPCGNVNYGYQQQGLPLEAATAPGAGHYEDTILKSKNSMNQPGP
The data set can be described thus: Cell anti-proliferation experiment 3, BaF3 cells with ALK fusion and mutation (CellTiter-Glo). In kind it is cell-based. Particulars: 3 days, CTG, read-out: EML-4-ALK-L1196M IC50. From the text:
(§1) • 1. […] Test information: • 2.1. Cell information: Cell lines containing ALK mutations in BaF3 were from WuXiAppTec: • Ba/F3-cell lines expressing ALK gene fusion and mutation • Ba/F3-EML-4-ALK-WT • Ba/F3-EML-4-ALK-L 1196M • 2.2.
(§2) Test results: The IC50 values of the compound DA and the control compound against BaF3 cells expressing EML-4-ALK-WT and EML-4-ALK-L1196M are shown in Table 22. • 4.

For data set [4], the target named is Ba/F3 cells expressing EGFR-C797S/T790M/L858R (Homo sapiens, UniProt P00533, T790M/C797S/L858R, cells depend on it). The data set can be described thus: Cell anti-proliferation experiment 1, BaF3 cells expressing EGFR mutation (CellTiter-Glo). The data set is classed as cell-based. Particulars: read-out: EGFR-C797S/T790M/L858R IC50.
Experimental: (§6) Test purpose: to detect the effect of the test compounds on the proliferation of cell lines containing EGFR mutations in BaF3 cells • 2. […] Cell information: Cell lines containing EGFR mutations in BaF3 were from WuXiAppTec: • BaF3-cell lines expressing EGFR mutation • EGFR-T790M/Del19 • EGFR-C797S/Del19 • EGFR-T790M/L858R • EGFR-C797S/L858R • EGFR-C797S/T790M/L858R • EGFR-C797S/T790M/Del19 • EGFR-WT wild-type cell lines • 2.2. Test method • Day 0: Cells were seeded in a plate. • a. An ultraviolet lamp of a biological safety cabinet was turned on and countdown was started for 30 minutes. • b. A medium was preheated in a 37° C. water bath. • c. After the ultraviolet irradiation was finished, the biological safety cabinet was opened. The pre-heated medium, PBS, and the like, were wiped with alcohol and placed in the biological safety cabinet. • d. The cells were removed from an incubator, blown to a uniform cell suspension in the biological safety cabinet and counted. • e. Based on the cell counting results, the cell suspension was adjusted to a density of 3,000 cells per well and 50 microliters per well, and seeded in 384-well plates. • f. The cells after seeding were incubated in a 5% CO2 incubator at 37° C. for 3 hours. • g. Compounds were added to the cell plates using Tecan (liquid workstation). • Day 3: the cell plate added with the compounds and CTG (CellTiter-Glo chemiluminescence cell activity assay reagent) were equilibrated at room temperature, 25 μl of CTG was added to each well, centrifuged at 1,000 rpm for 1 minute, and shaken for 1-2 minutes. And centrifuging for 1 minute at 1,000 rpm again, the cell plates were allowed to settle for 10 minutes to detect a signal value in Envision. The IC50 of each compound was calculated by computer fitting with XL-Fit analysis software (the IC50 of the compound on the cell activity inhibition could be obtained by reading the concentrations of the corresponding compounds at 500 inhibition rate). Inhibition rate % C (reading value of the control group without drug−reading value of the sample)/reading value of the control group without drug×100. • 3.
For data set [5], the target named is Ba/F3 cells expressing EGFR-WT (Homo sapiens, UniProt P00533). Briefly: Cell anti-proliferation experiment 1, BaF3 EGFR-WT wild-type cell line (CellTiter-Glo). In kind it is cell-based. Particulars: read-out: EGFR-WT IC50.
Experimental: as §6
The target of data set [6] is T2, BaF3 cells expressing EML-4-ALK-WT (Homo sapiens, UniProt Q9UM73).
T2 construct: fused on or other part: Q9HC35 (Echinoderm microtubule-associated protein-like 4)
T2 sequence (Q9UM73 whole entry, change not shown, the tested form may be a part): as the sequence (Q9UM73 whole entry L1196M, the tested form may be a part) above, with M1196L counted along it
Briefly: Cell anti-proliferation experiment 3, BaF3 cells with ALK fusion (CellTiter-Glo). Particulars: 3 days, CTG, read-out: EML-4-ALK-WT IC50. In kind it is cell-based.
Source text: as §1, §2

The target in data set [7] is Ba/F3 cells expressing EGFR-T790M/Del19 (Homo sapiens, UniProt P00533, T790M, cells depend on it, form not given). Briefly: Cell anti-proliferation experiment 1, BaF3 cells expressing EGFR mutation (CellTiter-Glo). The data set is classed as cell-based. Particulars: 3 days, CTG, read-out: EGFR-T790M/Del19 IC50.
Sequence of Ba/F3 cells expressing EGFR-T790M/Del19 (P00533 with tags, fused parts or gaps DEL746-750/T790M, form open): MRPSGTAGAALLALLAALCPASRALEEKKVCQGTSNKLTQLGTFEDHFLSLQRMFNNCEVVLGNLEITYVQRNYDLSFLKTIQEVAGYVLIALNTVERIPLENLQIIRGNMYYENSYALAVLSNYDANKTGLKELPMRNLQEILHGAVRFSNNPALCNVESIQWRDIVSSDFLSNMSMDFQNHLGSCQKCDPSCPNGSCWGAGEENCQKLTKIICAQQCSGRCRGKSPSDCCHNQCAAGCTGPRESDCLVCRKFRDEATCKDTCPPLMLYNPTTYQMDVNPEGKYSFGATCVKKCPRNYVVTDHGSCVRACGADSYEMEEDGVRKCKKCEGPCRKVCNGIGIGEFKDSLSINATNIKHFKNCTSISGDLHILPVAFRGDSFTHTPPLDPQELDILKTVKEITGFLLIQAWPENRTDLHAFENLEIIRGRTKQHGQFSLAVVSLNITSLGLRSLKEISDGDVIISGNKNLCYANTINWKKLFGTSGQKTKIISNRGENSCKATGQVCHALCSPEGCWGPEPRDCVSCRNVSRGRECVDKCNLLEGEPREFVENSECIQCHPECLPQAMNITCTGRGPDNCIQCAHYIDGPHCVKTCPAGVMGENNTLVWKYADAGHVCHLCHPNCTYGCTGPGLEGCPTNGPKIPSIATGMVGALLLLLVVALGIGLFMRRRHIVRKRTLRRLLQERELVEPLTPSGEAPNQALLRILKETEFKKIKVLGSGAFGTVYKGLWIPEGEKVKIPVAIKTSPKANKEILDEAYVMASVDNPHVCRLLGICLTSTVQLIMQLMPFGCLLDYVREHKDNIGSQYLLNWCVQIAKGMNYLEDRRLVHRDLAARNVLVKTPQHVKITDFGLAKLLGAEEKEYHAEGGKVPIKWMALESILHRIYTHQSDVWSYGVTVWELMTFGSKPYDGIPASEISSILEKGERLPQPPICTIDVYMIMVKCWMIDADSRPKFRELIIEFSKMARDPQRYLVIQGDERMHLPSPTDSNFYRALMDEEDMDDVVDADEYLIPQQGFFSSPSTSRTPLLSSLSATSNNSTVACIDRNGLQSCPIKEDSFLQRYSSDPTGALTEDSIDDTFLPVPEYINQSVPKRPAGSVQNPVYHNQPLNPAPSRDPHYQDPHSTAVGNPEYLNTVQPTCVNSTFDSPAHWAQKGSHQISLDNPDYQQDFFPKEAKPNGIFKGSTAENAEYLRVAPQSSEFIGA
Data set [8] in a line: High temperature and illumination stability test of crystal forms 1-3. In kind it is physicochemical. Particulars: for Traits: Day 10 (Table 18-1). The text has this: The stabilities of crystal form 2 and crystal form 3 under high temperature, illumination and long-term conditions were investigated.
Data set [9] is described as follows: Stability test 3: long-term and accelerated conditions. In kind it is physicochemical. Particulars: Long-term (25° C. ± 2° C., 65% RH ± 10% RH).
Another data set in a line: Solubility test. The data set is classed as physicochemical. Particulars: Solution with pH = 6.8, 25° C.±2° C.
Data set [10] can be described thus: High temperature and illumination stability test of crystal forms 1-3. Particulars: Illumination (illuminance: 5000Lx), Day 0 (Table 18-1). In kind it is physicochemical.
Data set [11] is described as follows: Comparative experiment of hygroscopicity (Chinese Pharmacopoeia 2020). The data set is classed as physicochemical. Particulars: for Hygroscopicity: class by weight gain after 24 h; for Weight gain % after 24 h: hygroscopicity test. The text has this: The description of hygroscopic characteristics and the definition of hygroscopic weight gain are as follows: • Deliquescence: absorbs sufficient amount of water to form a liquid; • Very hygroscopic: the weight gain by hygroscopy is not less than 15%; • Hygroscopic: the weight gain by hygroscopy is less than 15% but not less than 2%; • Slightly hygroscopic: the weight gain by hygroscopy is less than 2% but not less than 0.2%; and
Not or almost not hygroscopic: the weight gain by hygroscopy is less than 0.2% from hygroscopicity.

The test system of data set [12] is PC9 cells expressing EGFR-Del19. The data set can be described thus: Cell anti-proliferation experiment 2, PC9 cells (SRB). In kind it is cell-based. Particulars: Homo sapiens, PC-9, 72 h, read-out: EGFR-Del 19 GI50. How it is done: (§3) • 1. […] Test information: • 2.1. Cell information: PC9 cells carried EGFR Del19 mutation, and the rest of mutant cells were constructed from PC9 cells according to the conventional stable cell strain construction method. • PC9-cell lines expressing EGFR mutation • EGFR-Del19 • EGFR-T790M/Del19 • EGFR-C797S/T790M/Del19 • 2.2. Test method:
(§4) The test compounds were diluted by 5 times each time with an appropriate concentration as an initial concentration of the test, and totally diluted into 6 concentration gradients. […] SRB (Sulforhodamine B) detection method was used, and the optical density value of each well was read by a microplate reader at 490 nm wavelength.
(§5) The optical density of the cells at the drug action of 0 was set as a Tz value representing the value of the cells at the time that the drug was added. The optical density value of the cells after the solvent control DMSO acted for 72 hours was set as a C value. The optical density of the cells on which the test compounds acted for 72 hours was set as a Ti value. The response of the cells to the drug was calculated according to a method proposed by the U.S. NIH-NCI (National Institutes of Health-National Institute of Cancer): When Ti is more than or equal to Tz, the value was [(Ti−Tz)/(C−Tz)]×100; and when Ti is less than Tz, the value was [(Ti−Tz)/Tz]×100.

In data set [13] the test system is PC9 cells expressing EGFR-C797S/T790M/Del19. The description is as above. Particulars: Homo sapiens, PC-9, 72 h, read-out: EGFR-C797S/T790M/Del19 GI50. The data set is classed as cell-based. How it is done:
as §3, §4, §5

Data set [14] relates to PC9 cells expressing EGFR-T790M/Del19. The data set is described as above. The data set is classed as cell-based. Particulars: Homo sapiens, PC-9, 72 h, read-out: EGFR-T790M/Del19 GI50. The procedure: as §3, §4, §5
The target in data set [15] is Ba/F3 cells expressing EGFR-C797S/L858R (Homo sapiens, UniProt P00533, C797S/L858R, cells depend on it). Briefly: Cell anti-proliferation experiment 1, BaF3 cells expressing EGFR mutation (CellTiter-Glo). In kind it is cell-based. Particulars: 3 days, CTG, read-out: EGFR-C797S/L858R IC50.
Experimental: (§7) Test purpose: to detect the effect of the test compounds on the proliferation of cell lines containing EGFR mutations in BaF3 cells • 2. Test information: • 2.1. Cell information: Cell lines containing EGFR mutations in BaF3 were from WuXiAppTec: • BaF3-cell lines expressing EGFR mutation • EGFR-T790M/Del19 • EGFR-C797S/Del19 • EGFR-T790M/L858R • EGFR-C797S/L858R • EGFR-C797S/T790M/L858R • EGFR-C797S/T790M/Del19 • EGFR-WT wild-type cell lines • 2.2. Test method • Day 0: Cells were seeded in a plate. • a. An ultraviolet lamp of a biological safety cabinet was turned on and countdown was started for 30 minutes. • b. A medium was preheated in a 37° C. water bath. • c. After the ultraviolet irradiation was finished, the biological safety cabinet was opened. […] The cells were removed from an incubator, blown to a uniform cell suspension in the biological safety cabinet and counted. • e. […] The IC50 of each compound was calculated by computer fitting with XL-Fit analysis software (the IC50 of the compound on the cell activity inhibition could be obtained by reading the concentrations of the corresponding compounds at 500 inhibition rate). Inhibition rate % C (reading value of the control group without drug−reading value of the sample)/reading value of the control group without drug×100. • 3.
Data set [16] deals with Ba/F3 cells expressing EGFR-T790M/L858R (Homo sapiens, UniProt P00533, T790M/L858R, cells depend on it). The data set is described as above. In kind it is cell-based. Particulars: 3 days, CTG, read-out: EGFR-T790M/L858R IC50.
Experimental: as §7
Where [17] appears, read: High temperature (50° C.), Day 10.
The mark [18] stands for this setting: High temperature (50° C.), Day 30.
Where [19] appears, read: Illumination (illuminance: 5000Lx), Day 10.
The mark [20] stands for this setting: Illumination (illuminance: 5000Lx).
The mark [21] stands for this setting: Illumination (illuminance: 5000Lx), Day 30.

As for `COc1cc(N2CCC(N3CCN(C)CC3)CC2)c(C)cc1Nc1ncc(Cl)c(Nc2ccccc2P(C)(C)=O)n1` [Control compound 2], the GI50 in data set [1] was 177 nM; in data set [2] it was 221 nM; in data set [3] it was 47.4 nM; in data set [4], 583 nM; in [5], 1760 nM; in data set [6] it was 43.6 nM. In addition, the GI50 in data set [7] is 172 nM.

For the compound `COc1cc(N2CCC(N3CCN(C)CC3)CC2)c(C)cc1Nc1ncc(Br)c(Nc2ccc(C)cc2P(C)(C)=O)n1` [Crystal form 3, (2-((5-bromo-2-((2-methoxy-5-methyl-4-(4-(4-methylpiperazin-1-yl)piperidin-1-yl)phenyl)amino)pyrimidin-4-yl)amino)-5-methylphenyl)dimethylphosphorus oxide], the purity entry in data set [8] (Day 0) is reported as “purity: 99.44%;”; in data set [8] (setting [17]), 99.28%; the; in data set [8] (setting [18]), 98.89%; the; in data set [8] (setting [19]), “purity: 98.83%;”; in data set [8] (setting [21]), “purity: 96.95%;”. The “the number of impurities above the reporting limit” value in [8] (Day 0) was “limit is 7;”; in [8] (setting [17]), “limit is 7; total”; in [8] (setting [18]), “limit is 10;”; in data set [8] (setting [19]) it was “limit is 10;”; in data set [8] (setting [21]), “limit is 17;”. For the same compound, the total impurities in data set [8] (Day 0) is listed as 0.56%; in data set [8] (Day 0, listed as crystal form 3), 0.56%; in data set [8] (setting [17]), “impurities: 0.72%”; in data set [8] (setting [18]) it was 1.11%; in data set [8] (setting [19]), 1.17%; in data set [8] (setting [21]), 3.05%. The total impurities in data set [8] (Illumination (illuminance: 5000Lx), Day 30, listed as crystal form 3) was determined as 3.05%. In addition, the Traits entry in data set [8] (setting [20]) was “light yellow”; in data set [9] (Day 0), “Off-white”; in data set [9] (Day 30) it was “Light yellow”; in data set [10], “off-white”. The “Solubility for 24 h” value in “Solubility test” worked out at 1230 µg/mL. The Hygroscopicity result in [11] was “Slightly hygroscopic (the weight gain by hygroscopy is less than 2% but not less than 0.2%)”. Besides, in data set [11], the “Weight gain % after 24 h” value amounted to 1.49%.

With `COc1cc(N2CCC(N3CCN(C)CC3)CC2)c(C)cc1Nc1ncc(Br)c(Nc2ccc(C)cc2P(C)(C)=O)n1` [Crystal form 2, (2-((5-bromo-2-((2-methoxy-5-methyl-4-(4-(4-methylpiperazin-1-yl)piperidin-1-yl)phenyl)amino)pyrimidin-4-yl)amino)-5-methylphenyl)dimethylphosphorus oxide], the purity entry was “purity: 99.37%” in data set [8] (Day 0); 99.20% the in [8] (setting [17]); “purity: 98.72%;” in data set [8] (setting [18]); 99.01% the in data set [8] (setting [19]); “purity: 98.0%;” in data set [8] (setting [21]). In addition, the “the number of impurities above the reporting limit” value in [8] (Day 0) is listed as “limit is 7 total”; in data set [8] (setting [17]) it was “limit is 9 total”; in data set [8] (setting [18]), “limit is 13;”; in [8] (setting [19]) it was “limit is 10 total”; in data set [8] (setting [21]), “limit is 14;”. In addition, the total impurities entry is “impurities: 0.63%” in data set [8] (Day 0); 0.63% in data set [8] (Day 0, listed as crystal form 2); “impurities: 0.80%” in data set [8] (setting [17]); 1.28% in [8] (setting [18]); “impurities: 0.99%” in [8] (setting [19]); 2.0% in data set [8] (setting [21]). The compound further yielded a total impurities in [8] (Illumination (illuminance: 5000Lx), Day 30, listed as crystal form 2) of 2.0%. Also, the Traits entry in data set [8] (setting [20]) is “light yellow”; in data set [9] (Day 0) it was “Off-white”; in data set [9] (Day 30), “Light yellow”; in data set [10], “off-white”. Also, in the data set “Solubility test”, the “Solubility for 24 h” value is 1360 µg/mL. Also, in [11], the Hygroscopicity entry is recorded as “Slightly hygroscopic (the weight gain by hygroscopy is less than 2% but not less than 0.2%)”. Besides, the “Weight gain % after 24 h” value in [11] was 1.35%.

In the case of `COc1cc(N2CCC(N3CCN(C)CC3)CC2)ccc1Nc1ncc(Cl)c(Nc2ccc(C)cc2P(C)(C)=O)n1` [Control compound 3], the GI50 in data set [1] stood at 203 nM; in data set [2], 192 nM; in data set [3] it was 50.2 nM; in [4], 566 nM; in [5], 2340 nM; in data set [6] it was 39.4 nM. Moreover, the GI50 in data set [7] came to 216 nM.

Regarding `COc1cc(N2CCC(N3CCN(C)CC3)CC2)ccc1Nc1ncc(Cl)c(Nc2ccccc2P(C)(C)=O)n1` [Brigatinib (Brigatinib), Brigatinib], the GI50 in data set [12] turned out to be 287 nM; in data set [13], 516 nM; in [14] it was 256 nM.

`COc1cc(N2CCC(N3CCN(C)CC3)CC2)c(C)cc1Nc1ncc(Cl)c(Nc2cccc(C)c2P(C)(C)=O)n1` [Control compound 1]: the GI50 in [1] was determined as 184 nM; in [2], 180 nM; in [3], 65 nM; in data set [4] it was 626 nM; in data set [15] it was 573 nM; in data set [5] it was 1600 nM. Moreover, the GI50 came to 156 nM in data set [16], 34.1 nM in data set [6] and 166 nM in data set [7].
